# According to publication PMC12239085, “Silver(I) Ions Bridging Oxadiazole-2-thione Derivatives with Mitochondriotropic Agents: A Promising Strategy for Potent Anticancer Chemotherapy” (Inorganic Chemistry, 2025):
# “And” between values parts separate entries of the source, which are not always exact repeats. Equal entries are not always repeated. Where two headings read alike, the source gives them in different places.
# How the values were obtained:
# [1] = system: MCF-7 human breast adenocarcinoma cells (hormone-dependent); conditions: 48 h incubation; ref not 'this study', ref number not given; cited from earlier work
# [2] = system: MDA-MB-231 human breast adenocarcinoma cells (hormone-independent); parameters: method as in column not 'this study', ref number not given; conditions: 48 h incubation; ref not 'this study', ref number not given; cited from earlier work
# [3] = system: normal human fetal lung fibroblast (MRC-5) cells; parameters: method as in column not 'this study', ref number not given; conditions: 48 h incubation; ref not 'this study', ref number not given; cited from earlier work
# [4] = system: MCF-7 human breast adenocarcinoma cells (hormone-dependent); experiment: SRB antiproliferative assay, MCF-7; assay type: cell-based; conditions: for IC50: Homo sapiens, MCF7, SRB assay, 48 h incubation; for (%) cells viability: MCF-7 cells, ligands with IC50 higher than 30 μM
# Procedure: (§1) Stock solutions of compounds 1a–5a and 1–5 (0.01 M) in DMSO were freshly prepared and subsequently diluted with cell culture media to appropriate concentrations for various biological experiments. These included the assessment of cell viability using the SRB assay, micronucleus testing, cell morphology studies, cell cycle arrest, AO/EB staining, and mitochondrial membrane permeabilization tests. For CT-DNA binding studies, experiments were conducted in DMSO/buffer solutions. All biological experiments were performed in triplicate or more.
# (§2) Stock solutions of 1a–5a and 1–5 (0.01 M) were dissolved in DMSO and subsequently diluted with cell culture medium to the desired concentrations (0.5–30 μM). MCF-7, MDA MB-231, and MRC-5 cells were plated in 96-well flat-bottom microplates at various densities: 6000, 8000, and 2000 cells per well, respectively. The cells were incubated for 24 h at 37 °C and then exposed to 1a–5a and 1–5 for 48 h. ,–
# (§3) Cytotoxicity was evaluated using the SRB colorimetric assay at λ = 568 nm, with cell survival percentages calculated relative to the untreated control cells. Detailed information on the SRB assay procedure can be found in the previous publication. ,–
# [5] = system: MDA-MB-231 human breast adenocarcinoma cells (hormone-independent); experiment: SRB antiproliferative assay, MDA-MB-231; assay type: cell-based; conditions: Homo sapiens, MDA-MB-231, 48 h incubation
# Procedure: as §1, §2, §3
# [6] = system: normal human fetal lung fibroblast (MRC-5) cells; experiment: SRB toxicity assay, MRC-5; assay type: cell-based; conditions: Homo sapiens, MRC5, 48 h incubation
# Procedure: as §1, §2, §3
# [7] = system: nontumorigenic human breast epithelial cell line (MCF-10A); parameters: method as in column not 'this study', ref number not given; conditions: 48 h incubation; ref not 'this study', ref number not given; cited from earlier work
# MRC-5 cells = system: MRC-5 cells; parameters: method as in number not given; conditions: cited from earlier work
# MCF-7 cells [8] = system: MCF-7 cells; parameters: method as in number not given; conditions: cisplatin comparison; ref number not given; cited from earlier work
# MCF-7 cells [9] = system: MCF-7 cells; parameters: method as in number not given; conditions: cisplatin comparison; ref number not given; cited from earlier work; remark: listed apart in the source
# MCF-7 cells [10] = system: MCF-7 cells; parameters: method as in number not given; conditions: cisplatin comparison, ref number not given; cited from earlier work
# lipoxygenase (LOX) = molecular target: T1, lipoxygenase (LOX) (Glycine max, UniProt P08170); conditions: cisplatin comparison; ref number not given; read-out: IC50 against LOX; cited from earlier work
# T1 sequence (P08170 1-839): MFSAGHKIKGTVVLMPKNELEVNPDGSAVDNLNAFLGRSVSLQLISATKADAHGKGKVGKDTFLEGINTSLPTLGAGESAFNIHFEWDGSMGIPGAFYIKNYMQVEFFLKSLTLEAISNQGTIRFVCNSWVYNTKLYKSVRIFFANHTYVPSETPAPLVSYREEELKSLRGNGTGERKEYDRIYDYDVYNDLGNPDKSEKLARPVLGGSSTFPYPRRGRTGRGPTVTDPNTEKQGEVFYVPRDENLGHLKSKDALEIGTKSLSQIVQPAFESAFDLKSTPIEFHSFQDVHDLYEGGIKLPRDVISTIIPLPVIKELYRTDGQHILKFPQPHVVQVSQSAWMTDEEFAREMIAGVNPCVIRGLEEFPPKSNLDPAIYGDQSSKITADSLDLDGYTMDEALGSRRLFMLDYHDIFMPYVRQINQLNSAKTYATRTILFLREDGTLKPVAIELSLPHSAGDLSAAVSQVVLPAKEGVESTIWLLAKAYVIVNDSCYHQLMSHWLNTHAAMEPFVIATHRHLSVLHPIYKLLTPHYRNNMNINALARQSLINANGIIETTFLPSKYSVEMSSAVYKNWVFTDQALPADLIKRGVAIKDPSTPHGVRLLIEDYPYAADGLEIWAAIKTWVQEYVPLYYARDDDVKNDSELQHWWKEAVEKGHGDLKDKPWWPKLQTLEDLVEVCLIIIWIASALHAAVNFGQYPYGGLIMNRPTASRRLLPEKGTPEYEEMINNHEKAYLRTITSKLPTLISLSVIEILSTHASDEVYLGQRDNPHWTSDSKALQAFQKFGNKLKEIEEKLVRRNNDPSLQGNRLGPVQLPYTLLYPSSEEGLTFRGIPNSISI
SMILES,IC50 [4],(%) cells viability [4],IC50 [5],IC50 [6],further results
"c1ccc(P(c2ccccc2)c2ccccc2)cc1 [TPP, triphenylphosphine]",–,–,–,–,IC50 [1]: 28.9 ± 1.4 µM; IC50 [2]: > 30 µM; IC50 [3]: > 30000 nM
Fc1ccccc1-c1nnc(S)o1 [2a],> 30 µM,95.7%,> 30 µM,> 30 µM,–
N.N.[Cl][Pt][Cl] [cisplatin],–,–,–,–,"IC50 [1]: 5.5 ± 0.4 µM; IC50 [2]: 26.7 ± 1.1 µM; IC50 [3]: 1100 ± 200 nM; IC50 [7]: 11 ± 3 µM; Percentage of MN (MRC-5 cells; control = 0.8, ref number not given): 1.6 (control = 0.8) %; Relative ratio of MN toward its control (MRC-5 cells; ref number not given): 2.0; relative rate of apoptotic MCF-7 cells (MCF-7 cells [8]): 5.88 and 5.9; Relative rate of MCF-7 cells in sub-G1 phase (MCF-7 cells [9]): 2.9; fluorescence quenching (MMP) (MCF-7 cells [10]): 54.9%; IC50 (lipoxygenase (LOX)): 65.9 µM"
Sc1nnc(-c2cccc(Cl)c2)o1 [5a],> 30 µM,90.1%,> 30 µM,> 30 µM,–
S=c1[nH]nc(-c2ccccc2)o1 [1a],> 30 µM,84.7%,> 30 µM,> 30 µM,–
Sc1nnc(-c2ccccc2Cl)o1 [4a],> 30 µM,80.3%,> 30 µM,> 30 µM,–
Fc1ccc(-c2nnc(S)o2)cc1 [3a],> 30 µM,90.7%,> 30 µM,> 30 µM,–
